Experimental data as given in patent publication US8802661B2, “C-28 amides of modified C-3 betulinic acid derivatives as HIV maturation inhibitors” (priority 2010, dated 2014).
Where a name gives a salt, the structure may show the parent alone. Read-outs that look alike come from different tables or passages of the source.

Test system: recombinant NL4-3 virus (Renilla luciferase in nef, Gag P373S)
Assay: HIV Cell Culture Assay (luciferase reporter virus in MT-2 cells)
Format: cell-based
How it was run: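 MT-2 cells infected 4–5 days with NL4-3 carrying Renilla luciferase in nef and Gag P373S, with serial dilutions of inhibitor present. Antiviral activity quantified by luciferase activity, using Dual Luciferase reagents premixed with lysis buffer and read immediately.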

SMILES	EC50 (NL43, read-out: EC50 Group) [nM]	EC50 (NL43) [nM]
C=C(C)[C@@H]1CC[C@]2(C(=O)NCCN(C)C)CC[C@]3(C)[C@H](CC[C@@H]4[C@@]5(C)CC=C(c6cc(F)c(C(=O)O)c(F)c6)C(C)(C)[C@@H]5CC[C@]43C)[C@@H]12 [Example 122, 4-((1R,3aS,5aR,5bR,7aR,11aS,11bR,13aR,13bR)-3a-(2-(dimethylamino)ethylcarbamoyl)-5a,5b,8,8,11a-pentamethyl-1-(prop-1-en-2-yl)-2,3,3a,4,5,5a,5b,6,7,7a,8,11,11a,11b,12,13,13a,13b-octadecahydro-1H-cyclopenta[a]chrysen-9-yl)-2,6-difluorobenzoic acid]	< 100	–
C=C(C)[C@@H]1CC[C@]2(C(=O)NCCCN3CCS(=O)(=O)CC3)CC[C@]3(C)[C@H](CC[C@@H]4[C@@]5(C)CC=C(c6cc(F)c(C(=O)O)c(F)c6)C(C)(C)[C@@H]5CC[C@]43C)[C@@H]12 [Example 123, 4-((1R,3aS,5aR,5bR,7aR,11aS,11bR,13aR,13bR)-3a-((3-(1,1-dioxido-4-thiomorpholinyl)propyl)carbamoyl)-1-isopropenyl-5a,5b,8,8,11a-pentamethyl-2,3,3a,4,5,5a,5b,6,7,7a,8,11,11a,11b,12,13,13a,13b-octadecahydro-1H-cyclopenta[a]chrysen-9-yl)-2,6-difluorobenzoic acid]	< 100	–
CC(C)[C@@H]1CC[C@]2(C(=O)NCCC(=O)O)CC[C@]3(C)[C@H](CC[C@@H]4[C@@]5(C)CC[C@H](c6ccc(C(=O)O)cc6)C(C)(C)[C@@H]5CC[C@]43C)[C@@H]12 [Example 124, 4-((1S,3aS,5aR,5bR,7aS,9S,11aS,11bR,13aR,13bR)-3a-(2-carboxyethylcarbamoyl)-1-isopropyl-5a,5b,8,8,11a-pentamethylicosahydro-1H-cyclopenta[a]chrysen-9-yl)benzoic acid]	< 100	–
C=C(C)[C@@H]1CC[C@]2(C(=O)NCCN)CC[C@]3(C)[C@H](CC[C@@H]4[C@@]5(C)CC=C(c6ccc(C(=O)O)cc6)C(C)(C)[C@@H]5CC[C@]43C)[C@@H]12 [Example 125, 4-((1R,3aS,5aR,5bR,7aR,11aS,11bR,13aR,13bR)-3a-(2-aminoethylcarbamoyl)-5a,5b,8,8,11a-pentamethyl-1-(prop-1-en-2-yl)-2,3,3a,4,5,5a,5b,6,7,7a,8,11,11a,11b,12,13,13a,13b-octadecahydro-1H-cyclopenta[a]chrysen-9-yl)benzoic acid]	< 100	–
C=C(C)[C@@H]1CC[C@]2(C(=O)NCc3ccoc3)CC[C@]3(C)[C@H](CC[C@@H]4[C@@]5(C)CC=C(c6ccc(C(=O)O)cc6)C(C)(C)[C@@H]5CC[C@]43C)[C@@H]12 [Example 126, 4-((1R,3aS,5aR,5bR,7aR,11aS,11bR,13aR,13bR)-3a-(furan-3-ylmethylcarbamoyl)-5a,5b,8,8,11a-pentamethyl-1-(prop-1-en-2-yl)-2,3,3a,4,5,5a,5b,6,7,7a,8,11,11a,11b,12,13,13a,13b-octadecahydro-1H-cyclopenta[a]chrysen-9-yl)benzoic acid]	< 100	–
C=C(C)[C@@H]1CC[C@]2(C(=O)NCCC(=O)N3CCCC3C(=O)O)CC[C@]3(C)[C@H](CC[C@@H]4[C@@]5(C)CC=C(c6ccc(C(=O)O)cc6)C(C)(C)[C@@H]5CC[C@]43C)[C@@H]12 (stereo partly drawn) [Example 127, 1-(3-((1R,3aS,5aR,5bR,7aR,11aS,11bR,13aR,13bR)-9-(4-carboxyphenyl)-5a,5b,8,8,11a-pentamethyl-1-(prop-1-en-2-yl)-2,3,3a,4,5,5a,5b,6,7,7a,8,11,11a,11b,12,13,13a,13b-octadecahydro-1H-cyclopenta[a]chrysene-3a-carboxamido)propanoyl)pyrrolidine-2-carboxylic acid]	< 100	–
C=C(C)[C@@H]1CC[C@]2(C(=O)N3CCCC3C(=O)O)CC[C@]3(C)[C@H](CC[C@@H]4[C@@]5(C)CC=C(c6ccc(C(=O)O)cc6)C(C)(C)[C@@H]5CC[C@]43C)[C@@H]12 (stereo partly drawn) [Example 128, 1-((1R,3aS,5aR,5bR,7aR,11aS,11bR,13aR,13bR)-9-(4-carboxyphenyl)-5a,5b,8,8,11a-pentamethyl-1-(prop-1-en-2-yl)-2,3,3a,4,5,5a,5b,6,7,7a,8,11,11a,11b,12,13,13a,13b-octadecahydro-1H-cyclopenta[a]chrysene-3a-carbonyl)pyrrolidine-2-carboxylic acid]	< 100	–
C=C(C)[C@@H]1CC[C@]2(C(=O)NCCC(C)C)CC[C@]3(C)[C@H](CC[C@@H]4[C@@]5(C)CC=C(c6ccc(C(=O)O)cc6)C(C)(C)[C@@H]5CC[C@]43C)[C@@H]12 [Example 129, 4-((1R,3aS,5aR,5bR,7aR,11aS,11bR,13aR,13bR)-3a-(isopentylcarbamoyl)-5a,5b,8,8,11a-pentamethyl-1-(prop-1-en-2-yl)-2,3,3a,4,5,5a,5b,6,7,7a,8,11,11a,11b,12,13,13a,13b-octadecahydro-1H-cyclopenta[a]chrysen-9-yl)benzoic acid]	< 100	–
C=C(C)[C@@H]1CC[C@]2(C(=O)NCCN3CCS(=O)(=O)CC3)CC[C@]3(C)[C@H](CC[C@@H]4[C@@]5(C)CC=C(c6ccc(B(O)O)cc6)C(C)(C)[C@@H]5CC[C@]43C)[C@@H]12 [Example 130, (4-((1R,3aS,5aR,5bR,7aR,11aS,11bR,13aR,13bR)-3a-((2-(1,1-dioxidothiomorpholino)ethyl)carbamoyl)-5a,5b,8,8,11a-pentamethyl-1-(prop-1-en-2-yl)-2,3,3a,4,5,5a,5b,6,7,7a,8,11,11a,11b,12,13,13a,13b-octadecahydro-1H-cyclopenta[a]chrysen-9-yl)phenyl)boronic acid, TFA]	–	13.4
C[C@H]1[C@H](C)CC[C@]2(C(=O)NCCN(C)C)CC[C@]3(C)C(=CC[C@@H]4[C@@]5(C)CC=C(c6ccc(C(=O)O)cc6)C(C)(C)[C@@H]5CC[C@]43C)[C@H]12 [Example A1, 4-((4aR,6aR,6bS,8aS,11R,12S,12aS,14aR,14bS)-8a-(2-(dimethylamino)ethylcarbamoyl)-4,4,6a,6b,11,12,14b-heptamethyl-1,4,4a,5,6,6a,6b,7,8,8a,9,10,11,12,12a,14,14a,14b-octadecahydropicen-3-yl)benzoic acid]	< 100	–
C[C@H]1[C@H](C)CC[C@]2(C(=O)NCCCN3CCS(=O)(=O)CC3)CC[C@]3(C)C(=CC[C@@H]4[C@@]5(C)CC=C(c6ccc(C(=O)O)cc6)C(C)(C)[C@@H]5CC[C@]43C)[C@H]12 [Example A2, 4-((4aR,6aR,6bS,8aS,11R,12S,12aS,14aR,14bS)-8a-((3-(1,1-dioxido-4-thiomorpholinyl)propyl)carbamoyl)-4,4,6a,6b,11,12,14b-heptamethyl-1,4,4a,5,6,6a,6b,7,8,8a,9,10,11,12,12a,14,14a,14b-octadecahydro-3-picenyl)benzoic acid]	< 100	–
CN(C)CCNC(=O)[C@]12CCC(C)(C)C[C@H]1C1=CC[C@@H]3[C@@]4(C)CC=C(c5ccc(C(=O)O)cc5)C(C)(C)[C@@H]4CC[C@@]3(C)[C@]1(C)CC2 [Example B1, 4-((4aR,6aR,6bS,8aS,12aS,14aR,14bS)-8a-(2-(dimethylamino)ethylcarbamoyl)-4,4,6a,6b,11,11,14b-heptamethyl-1,4,4a,5,6,6a,6b,7,8,8a,9,10,11,12,12a,14,14a,14b-octadecahydropicen-3-yl)benzoic acid]	< 100	–
CC1(C)CC[C@]2(C(=O)NCCCN3CCS(=O)(=O)CC3)CC[C@]3(C)C(=CC[C@@H]4[C@@]5(C)CC=C(c6ccc(C(=O)O)cc6)C(C)(C)[C@@H]5CC[C@]43C)[C@@H]2C1 [Example B2, 4-((4aR,6aR,6bS,8aS,12aS,14aR,14bS)-8a-((3-(1,1-dioxido-4-thiomorpholinyl)propyl)carbamoyl)-4,4,6a,6b,11,11,14b-heptamethyl-1,4,4a,5,6,6a,6b,7,8,8a,9,10,11,12,12a,14,14a,14b-octadecahydro-3-picenyl)benzoic acid]	< 100	–
